Laboratory results published in ChEMBL document CHEMBL1201862, “PubChem BioAssay data set” (2004).
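Five concentrations, 48 hours, 96-well plates. GI50 = concentration required for 50% inhibition of growth.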 Activity calls are given as the source filed them. Cut-off read from the data, not from the text of the source: active = GI50 up to about 1.1 µM and inactive = higher.

Experiments:
Assay in all cases: NCI anticancer screen, dose series, 48 h
786-0 = tested on: 786-0
A498 = tested on: A498
A549 = tested on: A549
ACHN = tested on: ACHN
BT-549 = tested on: BT-549
CAKI-1 = tested on: CAKI-1
CCRF-CEM = tested on: CCRF-CEM
COLO 205 = tested on: COLO 205
DU-145 = tested on: DU-145
EKVX = tested on: EKVX
HCC 2998 = tested on: HCC 2998
HCT-116 = tested on: HCT-116
HCT-15 = tested on: HCT-15
HL-60 = tested on: HL-60
HOP-62 = tested on: HOP-62
HOP-92 = tested on: HOP-92
HT-29 = tested on: HT-29
Hs-578T = tested on: Hs-578T
IGROV-1 = tested on: IGROV-1
K562 = tested on: K562
KM12 = tested on: KM12
LOX IMVI = tested on: LOX IMVI
M14 = tested on: M14
MCF7 = tested on: MCF7
MDA-MB-231 = tested on: MDA-MB-231
MDA-MB-435 = tested on: MDA-MB-435
MDA-N = tested on: MDA-N
MOLT-4 = tested on: MOLT-4
Malme-3M = tested on: Malme-3M
NCI-H226 = tested on: NCI-H226
NCI-H23 = tested on: NCI-H23
NCI-H460 = tested on: NCI-H460
NCI-H522 = tested on: NCI-H522
NCI/ADR-RES = tested on: NCI/ADR-RES
OVCAR-3 = tested on: OVCAR-3
OVCAR-4 = tested on: OVCAR-4
OVCAR-5 = tested on: OVCAR-5
OVCAR-8 = tested on: OVCAR-8
PC-3 = tested on: PC-3
RPMI-8226 = tested on: RPMI-8226
RXF 393 = tested on: RXF 393
SF-268 = tested on: SF-268
SF-295 = tested on: SF-295
SF-539 = tested on: SF-539
SK-MEL-28 = tested on: SK-MEL-28
SK-MEL-2 = tested on: SK-MEL-2
SK-MEL-5 = tested on: SK-MEL-5
SK-OV-3 = tested on: SK-OV-3
SN12C = tested on: SN12C
SNB-19 = tested on: SNB-19
SNB-75 = tested on: SNB-75
SR = tested on: SR
SW-620 = tested on: SW-620
T47D = tested on: T47D
TK-10 = tested on: TK-10
U-251 = tested on: U-251
UACC-257 = tested on: UACC-257
UACC-62 = tested on: UACC-62
UO-31 = tested on: UO-31

Measured: GI50

CCCC(CCC)C(=O)O [VALPROIC ACID]
inactive: 786-0 > 0.1 mM | A498 0.532 mM | A549 9.06 mM | ACHN 5.45 mM | BT-549 12.2 mM | CAKI-1 7.48 mM | CCRF-CEM 14.8 mM | COLO 205 4.53 mM | DU-145 10.2 mM | EKVX > 0.1 mM | HCC 2998 5.71 mM | HCT-116 9.73 mM | HL-60 10.3 mM | HOP-62 > 0.1 mM | HOP-92 9.38 mM | HT-29 3.01 mM | Hs-578T 12.1 mM | IGROV-1 5.43 mM | K562 6.81 mM | KM12 14.3 mM | LOX IMVI 6.28 mM | M14 > 0.1 mM | MCF7 6.58 mM | MDA-MB-231 14.7 mM | MDA-MB-435 10.9 mM | MDA-N > 0.1 mM | MOLT-4 11.2 mM | Malme-3M 4.4 mM | NCI-H226 > 0.1 mM | NCI-H23 > 0.1 mM | NCI-H460 4.31 mM | NCI-H522 3.24 mM | NCI/ADR-RES 10.9 mM | OVCAR-3 12.9 mM | OVCAR-4 3.72 mM | OVCAR-5 > 0.1 mM | OVCAR-8 3.92 mM | PC-3 16.9 mM | RPMI-8226 4.07 mM | RXF 393 2.57 mM | SF-268 2.14 mM | SF-295 7.76 mM | SF-539 15.2 mM | SK-MEL-28 > 0.1 mM | SK-MEL-2 8 mM | SK-MEL-5 2.74 mM | SK-OV-3 > 0.1 mM | SN12C > 0.1 mM | SNB-19 > 0.1 mM | SNB-75 6.15 mM | SR 8.51 mM | SW-620 8.53 mM | T47D 7.52 mM | TK-10 8.24 mM | U-251 8.02 mM | UACC-257 4.53 mM | UACC-62 8.81 mM | UO-31 6.28 mM
8.09 mM: HCT-15
